# Read-outs that look alike come from different tables or passages of the source.
# Tests used:
# miR-22 [1] = test: miR-22 induction in HCT116 cells; type: cell-based; details: RA 10 μM, SAHA 5 μM, butyrate 5 mM, propionate 10 mM, valerate 10 mM
# Excerpt: Mean±SD, *p<0.05; **p<0.01; ***p<0.0001 vs. DMSO control, #p<0.05 vs. single agent treatment.
# miR-22 [2] = details: published data, cells not given; cited from earlier work
# Swiss mice = details: oral; cited from earlier work
# RARβ = RARβ mRNA and protein levels in HCT116 cells; type: cell-based; details: 48 hrs, RA 10 μM, butyrate 5 mM, SAHA 5 μM
# [3] = test system: colon tumors in xenograft models; details: combination: RA 0.025 mg/g and butyrate 1.2 mg/g, intraperitoneal, 5 times/week, 2 weeks; cited from earlier work
# HDAC1, HDAC4, and SIRT1 = details: liver cancer Huh7 and colon cancer HCT116 cells, published data; cited from earlier work
Compound,miR-22 induction (miR-22 [1]),miR-22 induction (miR-22 [2]),further results
CCC(=O)O [propionate],induced,induce miR-22,–
"CC1=C(/C=C/C(C)=C/C=C/C(C)=C/C(=O)O)C(C)(C)CCC1 [RA, all-trans retinoic acid]",induced,–,LD50 (Swiss mice): 1.1 mg/g
O=CO [formate],unable to induce miR-22,–,–
"O=C(CCCCCCC(=O)Nc1ccccc1)NO [SAHA, suberanilohydroxamic acid]",induced,induces miR-22,–
CC(=O)O [acetate],unable to induce miR-22,–,–
"EGF: promotes growth and does not has HDAC inhibitory effect (NSDSECPLSHDGYCLHDGVCMYIEALDKYACNCVVGYIGERCQYRDLKWWELR; Epidermal growth factor; UniProt P01133 971-1023, looked up)",–,–,RARβ expression (mRNA and protein) (RARβ): did not induce RARβ
"miR-22: tumor suppressor microRNA, SEQ ID NO:1 (AAGCUGCCAGUUGAAGAACUGU; listed as RNA, chemistry not fully specified; listed as Homo sapiens)",–,–,"treatment of colon tumors in xenograft models [3]: effective in treating colon tumors; HDAC1, HDAC4, and SIRT1 levels (HDAC1, HDAC4, and SIRT1): reduced"
CCCCC(=O)O [valerate],induced,induce miR-22,–

# Reference: patent publication US20220241227A1, “COMPOSITIONS COMPRISING HDAC INHIBITORS AND RETINOIDS” (The Regents of The University of California, priority 2019, published 2022)
